Data taken from patent publication US8652838B2, “Platensimycin biosynthetic gene cluster of Streptomyces platensis” (Wisconsin Alumni Research Foundation, priority 2007, dated 2014).
In brackets after ≈: the same amount, converted by molar mass. Like-named read-outs stand apart in the source and are kept apart here.

Tests used:
Streptomyces avermitilis = test: paper disk susceptibility of S. avermitilis; format: cell-based; conditions: 0.5-4 μg on paper disk
Description: (§1) FIGS. 6A-C: Engineering of S. platensis. (FIG. 6A) Additional biosynthetic intermediates and shunt metabolites isolated from the wild-type S. platensis MA7327 strain. (FIG. 6B) Production of PTM (●) and PTN (♦) by the engineered S. platensis SB12002 (iv) and SB12001 (iii) strains with the wild-type S. platensis MA7327 as a control under two fermentation conditions for PTM (i) and PTM and PTN (ii) production. (FIG. 6C) Susceptibility of S. avermitilis and S. albus J1074 to PTM and PTN: 1, negative controls; 2, 4 μg; 3, 4 μg; 4, 2 μg; 5, 1 μg; 6, 0.5 μg of PTM or PTN on each paper disk.
(§2) Having large quantity (multiple grams) of PTM and PTN in hand from the overproducers, the inventors systematically examined the sensitivity of a battery of Streptomyces towards PTM or PTN. Remarkably, they have identified strains that are sensitive to both PTM and PTN, as exemplified by Streptomyces avermitilis, or PTN but not PTM, as exemplified by Streptomyces albus J1074 (FIG. 6C). The differential sensitivity of the organisms tested towards PTM and PTN is consistent with the established mode of action for PTM and PTN (i.e., PTM as a FabB/F inhibitor while PTN as a FabB/F and FabH dual inhibitor)—targeting two essential proteins should lead to lower resistance potential than targeting only one. […]

FabF [1] = target: T1, FabF (Staphylococcus aureus, UniProt Q5TKS0); conditions: 14C-radiolabeled malonyl-CoA, polyacrylamide gel electrophoresis; cited from earlier work
T1 sequence (Q5TKS0 1-403): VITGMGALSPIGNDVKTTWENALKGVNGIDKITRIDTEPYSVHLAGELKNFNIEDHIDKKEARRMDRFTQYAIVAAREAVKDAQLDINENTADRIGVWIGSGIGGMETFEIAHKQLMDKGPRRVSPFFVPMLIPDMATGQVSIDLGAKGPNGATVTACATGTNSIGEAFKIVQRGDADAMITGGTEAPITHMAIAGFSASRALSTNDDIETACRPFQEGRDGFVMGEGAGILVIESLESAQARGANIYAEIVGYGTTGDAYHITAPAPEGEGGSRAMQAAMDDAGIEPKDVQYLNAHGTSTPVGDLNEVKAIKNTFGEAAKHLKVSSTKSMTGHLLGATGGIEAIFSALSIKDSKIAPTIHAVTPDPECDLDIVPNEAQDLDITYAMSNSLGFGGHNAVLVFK

S. aureus = conditions: cited from earlier work
Streptococcus pneumoniae = conditions: cited from earlier work
FabF [2] = target: T1, FabF; conditions: cited from earlier work
FabH [3] = target: T2, FabH (Staphylococcus aureus, UniProt Q8NXE2); conditions: cited from earlier work
T2 sequence (Q8NXE2 1-313): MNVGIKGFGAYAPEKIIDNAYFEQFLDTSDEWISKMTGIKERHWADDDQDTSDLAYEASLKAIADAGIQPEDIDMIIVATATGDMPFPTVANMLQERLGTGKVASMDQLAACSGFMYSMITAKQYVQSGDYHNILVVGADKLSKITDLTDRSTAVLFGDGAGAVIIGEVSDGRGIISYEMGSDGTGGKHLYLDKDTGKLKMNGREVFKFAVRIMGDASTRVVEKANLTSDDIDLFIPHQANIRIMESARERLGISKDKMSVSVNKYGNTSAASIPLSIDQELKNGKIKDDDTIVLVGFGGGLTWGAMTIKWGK

FabH [4] = target: T2, FabH; conditions: cited from earlier work; remark: listed apart in the source
[5] = system: lipid biosynthesis in S. aureus; conditions: whole-cell labeling; cited from earlier work
[6] = system: DNA, RNA, protein or cell wall biosynthesis; conditions: whole-cell labeling; cited from earlier work
Escherichia coli = conditions: cited from earlier work
mammalian cell = conditions: cited from earlier work
[7] = animal model studies; cited from earlier work
S. aureus infection = conditions: cited from earlier work
S. platensis MA7327 = test: antibiotic sensitivity of S. platensis MA7327; format: cell-based, Streptomyces platensis
Description: The inventors have developed an efficient genetic system for in vivo manipulation of PTM/PTN biosynthesis in S. platensis MA7327 via E. coli-S. platensis conjugation. […] Although S. platensis protoplasts can be readily prepared and regenerated with high frequency, introduction of either replicative or integrative plasmid into S. platensis via protoplast-mediated transformation has not been successful (Kieser et al., 2000).

Streptomyces albus J1074 = test: paper disk susceptibility of S. albus J1074; format: cell-based; conditions: 0.5-4 μg on paper disk
Description: as §1, §2

[8] = system: vancomycin-resistant E. faecium; conditions: cited from earlier work

C[C@]12C[C@@]34C=CC(=O)[C@@](C)(CCC(=O)Nc5c(O)ccc(C(=O)O)c5O)C3[C@H](CC1C4)O2 (stereo partly shown) [PTM, platensimycin]
sensitivity of Streptomyces avermitilis (Streptomyces avermitilis): sensitive
preference for FabF inhibition relative to FabH inhibition (FabF [1]): 838 fold
minimal inhibitory concentration (S. aureus): 1 µM (≈ 0.441 µg/mL)
minimal inhibitory concentration (Streptococcus pneumoniae): 2.5 µM (≈ 1.1 µg/mL)
greater potency than cerulenin as inhibitor of FabF (FabF [2]; relative to cerulenin): 200 fold
IC50 (FabF [2]; single enzyme inhibition assays): < 50 nM
inhibition of S. aureus FabH (FabH [3]): weak inhibition
FabH inhibition (FabH [4]): does not inhibit FabH to any significant extent
IC50 inhibition of lipid biosynthesis [5]: 0.1 µg/mL
concentration without inhibition of DNA, RNA, protein or cell wall biosynthesis [6]: > 500 µg/mL
antibacterial activity (Escherichia coli; efflux-negative Escherichia coli): showed antibacterial activity
effectiveness against Gram-negative Escherichia coli (Escherichia coli; tolC dependent efflux): not very effective
antibacterial activity (Escherichia coli; wild-type E. coli): not against wild-type E. coli
mammalian cell toxicity (mammalian cell): Low
pharmacokinetics [7]: exceedingly poor pharmacokinetics
decrease of S. aureus infection (S. aureus infection; mouse, 100 μg/h intravenously with a continuous pump, over 24 hrs): 10^4-10^5 fold

CN[C@@H]1[C@@H](O[C@H]2O[C@H](CO)[C@@H](N)[C@H](O)[C@H]2O)OC2C[C@@H](N)[C@@H](O[C@H]3[C@H](O)[C@@H](O)[C@H](N)C[C@@H]3N)OC2[C@@H]1O (stereo partly shown) [apramycin]
concentration giving complete inhibition of growth (S. platensis MA7327): 25 µg/mL

CC[C@H]1OC(=O)[C@H](C)[C@@H](O[C@H]2C[C@@](C)(OC)[C@@H](O)[C@H](C)O2)[C@H](C)[C@@H](O[C@@H]2O[C@H](C)C[C@H](N(C)C)[C@H]2O)[C@](C)(O)C[C@@H](C)C(=O)[C@H](C)[C@@H](O)[C@]1(C)O [erythromycin]
concentration giving complete inhibition of growth (S. platensis MA7327): 10 µg/mL

NC[C@H]1O[C@H](O[C@H]2[C@H](O)[C@@H](O[C@H]3O[C@H](CO)[C@@H](O)[C@H](N)[C@H]3O)[C@H](N)C[C@@H]2N)[C@H](O)[C@@H](O)[C@@H]1O [kanamycin]
concentration giving complete inhibition of growth (S. platensis MA7327): 25 µg/mL

C=C1C[C@@]23C=CC(=O)[C@@](C)(CCC(=O)Nc4c(O)ccc(C(=O)O)c4O)[C@@H]2C[C@@H]1CC3 [platencin]
sensitivity of Streptomyces avermitilis (Streptomyces avermitilis): sensitive
sensitivity of Streptomyces albus J1074 (Streptomyces albus J1074): sensitive
antibacterial activity compared to platensimycin (Streptococcus pneumoniae; S. pneumoniae): decreased activity
FabH inhibition (FabH [4]): inhibits FabH
antibacterial activity compared to platensimycin (Escherichia coli; efflux-negative E. coli): increased antibacterial activity
antibacterial activity compared to platensimycin [8]: increased antibacterial activity
pharmacokinetics [7]: exceedingly poor pharmacokinetics
reduction of S. aureus cfu in kidney (S. aureus infection; mouse, continuous infusion 150 μg/h, over 24 h): 3 log
in vivo efficacy (S. aureus infection; mouse, in vivo): potent in vivo efficacy
observed toxicity in vivo (S. aureus infection; mouse, in vivo): without any observed toxicity

C=C(NC(=O)C(=C)NC(=O)c1csc(C2=N[C@@H]3c4csc(n4)[C@H]4NC(=O)c5csc(n5)[C@H]([C@](C)(O)[C@@H](C)O)NC(=O)[C@H]5CSC(=N5)/C(=C/C)NC(=O)[C@H]([C@@H](C)O)NC(=O)c5csc(n5)[C@]3(CC2)NC(=O)[C@H](C)NC(=O)C(=C)NC(=O)[C@H](C)NC(=O)[C@H]([C@@H](C)CC)N[C@@H]2C=Cc3c([C@H](C)O)cc(nc3[C@H]2O)C(=O)O[C@@H]4C)n1)C(N)=O [thiostrepton]
concentration giving complete inhibition of growth (S. platensis MA7327): 10 µg/mL

platensimycin [PTM]
clearing S. aureus infection from a mouse model (S. aureus infection; high doses): effective in clearing S. aureus infection
